{
  "source": "patent US20260158156A1",
  "about": "“SPECIFIC CONJUGATION OF AN ANTIBODY” (priority 2021, published 2026)",
  "system": "8226-2A1 cells",
  "test": "MTT in vitro cytotoxicity assay of BCMA antibody conjugates, 8226-2A1",
  "format": "cell-based",
  "settings": "15000 cells, 96 h incubation",
  "protocol": "The cell lines used in the cytotoxicity assays were (1). […] To run the assay, the cells (180 μl, 6000 cells) were added to each well in a 96-well plate and incubated for 24 hours at 37° C. with 5% CO2. Next, the cells were treated with test compounds (20 μl) at various concentrations in appropriate cell culture medium (total volume, 0.2 mL). The control wells contain cells and the medium but lack the test compounds. […] MTT (5 mg/mL) was then added to the wells (20 μl) and the plates were incubated for 1.5 hr at 37° C. The medium was carefully removed and DMSO (180 μl) was added afterward. After it was shaken for 15 min, the absorbance was measured at 490 nm and 570 nm with a reference filter of 620 nm. The inhibition % was calculated according to the following equation: inhibition %=[1−(assay-blank)/(control-blank)]×100.",
  "data": [
    {"smiles": "CC(=O)O[C@H]1C(=O)[C@@]2(C)[C@H]([C@H](OC(=O)c3ccccc3)[C@]3(O)C[C@H](OC(=O)[C@H](O)[C@@H](NC(=O)c4ccccc4)c4ccccc4)C(C)=C1C3(C)C)[C@]1(OC(C)=O)CO[C@@H]1C[C@@H]2O", "note": "[Paclitaxel]", "values": [
      {"measurement": "IC50", "result": 3.71, "unit": "nM"}
    ]}
  ]
}
